Target: EndA(H160G) (Streptococcus pneumoniae serotype 4, UniProt P0A3S3, H160G)
Experiment: PicoGreen nuclease assay
Assay type: biochemical
Conditions: 25 mM imidazole, 30 min reaction, top concentration 30 µM

SMILES	IC50 (stated in words)
O=c1c(O)c(-c2cc(O)c(O)c(O)c2)oc2cc(O)cc(O)c12 [Myricetin]	nanomolar range
NC(Cc1cc(O)c(O)cc1O)C(=O)O (racemic) [6-hydroxy-DL-DOPA]	nanomolar range
CC(C)c1ccc2c(c1)c(SC(C)(C)C)c(CC(C)(C)C(=O)[O-])n2Cc1ccc(Cl)cc1.[Na+] [MK-886]	nanomolar range

Reference: PMC4773034 (Journal of biomolecular screening, 2012)
